Measured values taken from patent publication US8653089B2, “Heterocyclic compounds and methods of use” (F. Hoffmann-La Roche AG, priority 2011, dated 2014).

test system: production of CD69 by B lymphocytes in human whole blood activated by crosslinking surface IgM; test: CD69 human whole blood assay (Example 903), FACS; format: cell-based; details: B lymphocytes activated with goat F(ab')2 anti-human IgM, read-out: CD69 Hu Blood FACS IC50
From the text: There is good evidence that B-cells play a key role in the pathogenesis of autoimmune and/or inflammatory disease. Protein-based therapeutics that deplete B cells such as Rituxan are effective against autoantibody-driven inflammatory diseases such as rheumatoid arthritis (Rastetter et al. (2004) Annu Rev Med 55:477). CD69 is the early activation marker in leukocytes including T cells, thymocytes, B cells, NK cells, neutrophils, and eosinophils. The CD69 human whole blood assay (Example 903) determines the ability of compounds to inhibit the production of CD69 by B lymphocytes in human whole blood activated by crosslinking surface IgM with goat F(ab′)2 anti-human IgM.

IC50 [nM] | Compound
134 | CC(Nc1ncnc2[nH]cnc12)c1nc2ccc(F)cc2n1-c1ccc(F)cc1 (stereo not drawn) [Example 186, {1-[6-Fluoro-1-(4-fluoro-phenyl)-1H-benzoimidazol-2-yl]-ethyl}-(9H-purin-6-yl)-amine]
12.7 | CC(Nc1ncnc2[nH]cnc12)c1nc2ccc(F)cc2n1-c1cccnc1 (stereo not drawn) [Example 220, [1-(6-Fluoro-1-pyridin-3-yl-1H-benzoimidazol-2-yl)-ethyl]-(9H-purin-6-yl)-amine]
175 | OCC(Nc1ncnc2nc[nH]c12)c1nc2ccc(F)cc2n1-c1ccccc1 (stereo not drawn) [Example 172, 2-(6-Fluoro-1-phenyl-1H-benzoimidazol-2-yl)-2-(7H-purin-6-ylamino)-ethanol]

same assay, conditions: Homo sapiens, Lymphocyte, B lymphocytes activated with goat F(ab')2 anti-human IgM, read-out: CD69 Hu Blood FACS IC50

Compound | IC50 [nM]
C[C@H](Nc1ncnc(N)c1C#N)c1nc2ccc(F)c(-c3ccccc3)c2n1C1CC1 [Example 415, 4-amino-6-[[(1S)-1-(1-cyclopropyl-6-fluoro-7-phenyl-benzimidazol-2-yl)ethyl]amino]pyrimidine-5-carbonitrile] | 224
Cc1nccc(N[C@@H](C)c2nc3ccc(F)cc3n2-c2ccccc2)c1C#N [Example 340, 4-[(S)-1-(6-Fluoro-1-phenyl-1H-benzoimidazol-2-yl)-ethylamino]-2-methyl-nicotinonitrile] | 606
Fc1ccc2nc(CNc3ncnc4[nH]cnc34)n(-c3ccccc3)c2c1 [Example 443, (6-Fluoro-1-phenyl-1H-benzoimidazol-2-ylmethyl)-(9H-purin-6-yl)amine] | > 5000
COCC(Nc1ncnc2[nH]cnc12)c1nc2ccc(F)c(F)c2n1-c1ccccc1 (stereo not drawn) [Example 190, [1-(6,7-Difluoro-1-phenyl-1H-benzoimidazol-2-yl)-2-methoxy-ethyl]-(9H-purin-6-yl)-amine] | 247
OC[C@H](Nc1ncnc2[nH]cnc12)c1nc2ccc(F)cc2n1-c1ccccn1 [Example 280, (R)-2-(6-Fluoro-1-pyridin-2-yl-1H-benzoimidazol-2-yl)-2-(9H-purin-6-ylamino)-ethanol] | 139
C[C@H](Nc1ccncc1C#N)c1nc2ccc(F)cc2n1-c1ccccc1 [Example 312, 4-[(S)-1-(6-Fluoro-1-phenyl-1H-benzoimidazol-2-yl)-ethylamino]-nicotinonitrile] | 3900
CC(Nc1ncnc2[nH]cnc12)c1nc2ccc(F)cc2n1-c1ccccc1F (stereo not drawn) [Example 195, {1-[6-Fluoro-1-(2-fluoro-phenyl)-1H-benzoimidazol-2-yl]-ethyl}-(9H-purin-6-yl)-amine] | 53
CC(Nc1ncnc2[nH]cnc12)c1nc2ccc(F)cc2n1-c1ccc(F)cc1 (stereo not drawn) [Example 221, {1-[6-Fluoro-1-(4-fluoro-phenyl)-1H-benzoimidazol-2-yl]-ethyl}-(9H-purin-6-yl)-amine] | 152
COc1ccc(-n2c(C(C)Nc3ncnc4[nH]cnc34)nc3ccc(F)cc32)cn1 (stereo not drawn) [Example 207, {1-[6-Fluoro-1-(6-methoxy-pyridin-3-yl)-1H-benzoimidazol-2-yl]-ethyl}-(9H-purin-6-yl)-amine] | 798
CC(Nc1ncnc2[nH]cnc12)c1nc2ccc(F)cc2n1-c1ccc(C#N)cc1 (stereo not drawn) [Example 227, 4-{6-Fluoro-2-[1-(9H-purin-6-ylamino)-ethyl]-benzoimidazol-1-yl}-benzonitrile] | 78.3
C[C@H](Nc1ncnc2[nH]cnc12)c1nc2ccc(F)cc2n1-c1ccn(C)n1 [Example 403, N-[(1S)-1-[6-fluoro-1-(1-methylpyrazol-3-yl)benzimidazol-2-yl]ethyl]-9H-purin-6-amine] | 163
CC(C)n1c([C@H](C)Nc2ncnc(N)c2C#N)nc2ccc(F)c(-c3ccccn3)c21 [Example 408, 4-amino-6-[[(1S)-1-[6-fluoro-1-isopropyl-7-(2-pyridyl)benzimidazol-2-yl]ethyl]amino]pyrimidine-5-carbonitrile] | 163
CC(Nc1ncnc2[nH]cnc12)c1nc2ccc(F)c(O)c2n1-c1ccccc1 (stereo not drawn) [Example 327, 5-Fluoro-3-phenyl-2-[1-(9H-purin-6-ylamino)-ethyl]-3H-benzoimidazol-4-ol] | 196
C[C@H](Nc1ncnc(N)c1C#N)c1nc2cccnc2n1-c1ccccc1 [Example 337, 4-Amino-6-[(S)-1-(3-phenyl-3H-imidazo[4,5-b]pyridin-2-yl)-cthylamino]-pyrimidine-5-carbonitrile] | 96.6
CCC(Nc1ncnc2nc[nH]c12)c1nc2ccc(F)cc2n1-c1ccccc1 (stereo not drawn) [Example 212, [1-(6-Fluoro-1-phenyl-1H-benzoimidazol-2-yl)-propyl]-(7H-purin-6-yl)-amine] | 55.5
CC(Nc1ncnc2[nH]cnc12)c1nc2ccc(F)c(C(=O)N3CCOCC3)c2n1-c1ccccc1 (stereo not drawn) [Example 203, {5-Fluoro-3-phenyl-2-[1-(9H-purin-6-ylamino)-ethyl]-3H-benzoimidazol-4-yl}-morpholin-4-yl-methanone] | 2.83
CC(C)N1CC(n2c([C@H](C)Nc3ncnc4[nH]cnc34)nc3ccc(F)cc32)C1 [Example 380, N-[(1S)-1-[6-fluoro-1-(1-isopropylazetidin-3-yl)benzimidazol-2-yl]ethyl]-9H-purin-6-amine] | 58.2
C[C@H](Nc1ncnc(N)c1C#N)c1nc2ccc(F)c(C(=O)N3CCOCC3)c2n1C1CC1 [Example 401, 4-amino-6-[[(1S)-1-[1-cyclopropyl-6-fluoro-7-(morpholine-4-carbonyl)benzimidazol-2-yl]ethyl]amino]pyrimidine-5-carbonitrile] | 23.2
C[C@H](Nc1ncnc(N)c1C#N)c1nc2ccc(F)c(CC#N)c2n1-c1ccccc1 [Example 345, 4-Amino-6-[(S)-1-(7-cyanomethyl-6-fluoro-1-phenyl-1H-benzoimidazol-2-yl)-ethylamino]-pyrimidine-5-carbonitrile] | 2.91
Cc1nc(N)nc(N[C@@H](C)c2nc3ccc(F)cc3n2-c2ccccn2)c1C#N [Example 333, 2-Amino-4-[(S)-1-(6-fluoro-1-pyridin-2-yl-1H-benzoimidazol-2-yl)-ethylamino]-6-methyl-pyrimidine-5-carbonitrile] | 4.92
Cc1nc(N)nc(N[C@@H](C)c2nc3ccc(F)cc3n2-c2ccccc2)n1 [Example 258, N—[(S)-1-(6-Fluoro-1-phenyl-1H-benzoimidazol-2-yl)-ethyl]-6-methyl-[1,3,5]triazine-2,4-diamine] | 141
C[C@H](Nc1ncnc2[nH]cnc12)c1nc2ccc(F)c(C3CC3)c2n1-c1cccnc1 [Example 294, [(S)-1-(7-Cyclopropyl-6-fluoro-1-pyridin-3-yl-1H-benzoimidazol-2-yl)-ethyl]-(9H-purin-6-yl)-amine] | 4.1

Results, then the compound that gave them:

IC50 [nM] | Compound
48.4 | C[C@H](Nc1ncnc(N)c1C#N)c1nc2ccc(F)cc2n1-c1ccncc1 [Example 354, 4-Amino-6-[(S)-1-(6-fluoro-1-pyridin-4-yl-1H-benzoimidazol-2-yl)-ethylamino]-pyrimidine-5-carbonitrile]
16.6 | C[C@H](Nc1ncnc2[nH]cnc12)c1nc2ccc(F)cc2n1[C@H]1CCCN(CCO)C1 [Example 278, 2-((S)-3-{6-Fluoro-2-[(S)-1-(9H-purin-6-ylamino)-ethyl]-benzoimidazol-1-yl}-piperidin-1-yl)-ethanol]
67.8 | C[C@H](Nc1ncnc(N)c1C#N)c1nc2ccc(F)cc2n1-c1ccnn1C [Example 416, 4-amino-6-[[(1S)-1-[6-fluoro-1-(2-methylpyrazol-3-yl)benzimidazol-2-yl]ethyl]amino]pyrimidine-5-carbonitrile]
3.44 | Cc1nc(N)nc(N[C@@H](C)c2nc3ccc(F)cc3n2-c2ccccc2)c1C#N [Example 328, 2-Amino-4-[(S)-1-(6-fluoro-1-phenyl-1H-benzoimidazol-2-yl)-ethylamino]-6-methyl-pyrimidine-5-carbonitrile]
54.7 | CC(C)C(Nc1ncnc2[nH]cnc12)c1nc2ccc(F)cc2n1-c1cccnc1 (stereo not drawn) [Example 206, [1-(6-Fluoro-1-pyridin-3-yl-1H-benzoimidazol-2-yl)-2-methyl-propyl]-(9H-purin-6-yl)-amine]
184 | C[C@H](Nc1ncnc2[nH]cnc12)c1nc2cccc(C#N)c2n1-c1ccccc1 [Example 279, 3-Phenyl-2-[(S)-1-(9H-purin-6-ylamino)-ethyl]-3H-benzoimidazole-4-carbonitrile]
145 | C[C@H](Nc1ncnn2ccnc12)c1nc2ccc(F)cc2n1-c1ccccn1 [Example 322, [(S)-1-(6-Fluoro-1-pyridin-2-yl-1H-benzoimidazol-2-yl)-ethyl]-imidazo[2,1-f][1,2,4]triazin-4-yl-amine]
152 | COC[C@H](Nc1ncnc2[nH]cnc12)c1nc2ccc(F)cc2n1-c1ccccn1 [Example 270, [(R)-1-(6-Fluoro-1-pyridin-2-yl-1H-benzoimidazol-2-yl)-2-methoxy-ethyl]-(9H-purin-6-yl)-amine]
4.93 | COc1c(F)ccc2nc([C@H](C)Nc3ncnc(N)c3C#N)n(-c3ccccc3)c12 [Example 339, 4-Amino-6-[(S)-1-(6-fluoro-7-methoxy-1-phenyl-1H-benzoimidazol-2-yl)-ethylamino]-pyrimidine-5-carbonitrile]
14.1 | CC(Nc1ncnc2[nH]cnc12)c1nc2ccc(F)c(C(=O)N3CCN(C)CC3)c2n1-c1ccccc1 (stereo not drawn) [Example 202, {5-Fluoro-3-phenyl-2-[1-(9H-purin-6-ylamino)-ethyl]-3H-benzoimidazol-4-yl}-(4-methyl-piperazin-1-yl)-methanone]
81.7 | C[C@H](Nc1ncnc2[nH]cnc12)c1nc2ccc(F)cc2n1-c1ccncn1 [Example 332, [(S)-1-(6-Fluoro-1-pyrimidin-4-yl-1H-benzoimidazol-2-yl)-ethyl]-(9H-purin-6-yl)-amine]
